Values of other authors as cited in US5773415A, “Use of des-aspartate-angiotensin I as an anti-cardiac hypertrophic agent” (National University of Singapore, priority 1995, dated 1998).

tested on: specific aminopeptidase; details: homogenates of rat aorta and hypothalamus

Inhibition of the aminopeptidase degrading angiotensin I to des-Aspartate-angiotensin I, not inhibited:
O=C(O)CN(CCN(CC(=O)O)CC(=O)O)CC(=O)O [EDTA]
CC(C)C[C@@H](N)[C@H](O)C(=O)N[C@H](C(=O)N[C@H](C(=O)N[C@@H](CC(=O)O)C(=O)O)C(C)C)C(C)C [amastatin]
CC(C)C[C@H](NC(=O)[C@@H](O)[C@H](N)Cc1ccccc1)C(=O)O [bestatin]
